This is an account of results in ChEMBL document CHEMBL1138582, “5-Aminopyrimidin-2-ylnitriles as cathepsin K inhibitors” (Bioorg Med Chem Lett, 2009).

For one data set, the target named is T1, Cathepsin K (Homo sapiens, UniProt P43235).
T1 sequence (P43235 whole entry): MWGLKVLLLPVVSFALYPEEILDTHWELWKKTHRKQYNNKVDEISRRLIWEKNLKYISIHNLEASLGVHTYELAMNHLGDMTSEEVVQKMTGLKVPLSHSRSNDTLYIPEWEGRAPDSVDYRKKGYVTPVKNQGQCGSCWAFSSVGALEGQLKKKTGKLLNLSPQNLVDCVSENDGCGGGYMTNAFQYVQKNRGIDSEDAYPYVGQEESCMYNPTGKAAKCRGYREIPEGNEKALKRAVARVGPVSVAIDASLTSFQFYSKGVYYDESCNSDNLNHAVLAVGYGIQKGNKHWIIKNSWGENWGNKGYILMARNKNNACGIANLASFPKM
Put plainly: Inhibition of cathepsin K.

Data set [1] is described as follows: Electrophilicity, glutathione reactivity assessed as half life. Type of data set: physicochemical. The arrangement: unit not given here.
Another data set concerns the target Cathepsin S (Homo sapiens, UniProt P25774). Put plainly: Inhibition of cathepsin S.
In a further data set the target is Procathepsin L (Homo sapiens, UniProt P07711). Put plainly: Inhibition of cathepsin L.
Procathepsin L, sequence (P07711 whole entry): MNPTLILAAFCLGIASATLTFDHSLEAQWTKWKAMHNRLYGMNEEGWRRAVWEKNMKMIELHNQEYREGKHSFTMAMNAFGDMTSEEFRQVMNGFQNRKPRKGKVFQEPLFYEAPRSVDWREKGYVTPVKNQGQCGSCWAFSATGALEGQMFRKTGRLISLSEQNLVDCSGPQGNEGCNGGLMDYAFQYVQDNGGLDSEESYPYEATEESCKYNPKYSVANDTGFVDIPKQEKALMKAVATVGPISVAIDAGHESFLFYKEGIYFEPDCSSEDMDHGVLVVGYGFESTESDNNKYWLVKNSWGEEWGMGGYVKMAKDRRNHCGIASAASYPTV
The next data set addresses Cathepsin B (Homo sapiens, UniProt P07858). As to the kind of experiment: Inhibition of cathepsin B.

Molecules are shown by their SMILES. Bounds are passed on as bounds.

Cathepsin S, sequence (P25774 whole entry): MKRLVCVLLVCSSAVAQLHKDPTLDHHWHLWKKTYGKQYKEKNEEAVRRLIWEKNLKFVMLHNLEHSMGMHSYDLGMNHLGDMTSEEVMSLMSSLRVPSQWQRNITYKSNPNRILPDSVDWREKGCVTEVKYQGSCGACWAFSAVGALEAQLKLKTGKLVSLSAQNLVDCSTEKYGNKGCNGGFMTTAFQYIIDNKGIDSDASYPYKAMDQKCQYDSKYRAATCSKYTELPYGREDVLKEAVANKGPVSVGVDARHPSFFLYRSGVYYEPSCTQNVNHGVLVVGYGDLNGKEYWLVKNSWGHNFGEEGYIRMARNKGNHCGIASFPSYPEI

A word on the IC50: it is the concentration that gives 50% inhibition. Regarding `N#Cc1nc(NC2CCOC2)c(N)c(N2CCOCC2)n1` (configuration not stated), inhibition on Cathepsin K was half-maximal at 340 nM (IC50).

For the molecule `CN(C)c1cc(N(C)C)nc(C#N)n1`, in data set [1], the logt1/2 is on record as 2.56.

With `CC(C)CNc1nc(C#N)nc(N2CCOCC2)c1N`, the IC50 is 18 nM on Cathepsin K, 560 nM against Cathepsin S and 2000 nM at Procathepsin L.

Take `CN(C)c1nc(C#N)nc(Nc2ccccc2)n1`: the logt1/2 in data set [1] turned out to be 2.07.

In the case of `CNc1nc(C#N)nc(N(C)C)c1N`, the logt1/2 in data set [1] is 3.38.

Take `CCC(C)Nc1nc(C#N)nc(N2CCOCC2)c1N` (configuration not stated): on Cathepsin K, inhibition was half-maximal at 300 nM (IC50).

For the molecule `N#Cc1nc(NC2CC3CCC2C3)c(N)c(N2CCOCC2)n1` (configuration not stated), the 50% inhibitory concentration (IC50) at Cathepsin K is 2 nM.

The molecule `N#Cc1nc(N2CCCC2)c(N)c(N2CCOCC2)n1` returned an IC50 against Cathepsin K of 60 nM.

With `N#Cc1nc(Nc2ccccc2)c(N)c(N2CCOCC2)n1`, at Cathepsin K, the half-maximal inhibitory concentration (IC50) stood at 110 nM.

As for `CC(C)Nc1nc(C#N)nc(N2CCOCC2)c1N`, the IC50 at Cathepsin K was 560 nM.

Molecule `N#Cc1nc(NC2CCCCC2)c(N)c(N2CCOCC2)n1` gave an IC50 against Cathepsin K of 23 nM.

For `CC(C)(C)CNc1nc(C#N)nc(N2CCOCC2)c1N`, the IC50 is 17 nM against Cathepsin K, over 10000 nM against Cathepsin B, 910 nM at Cathepsin S and over 10000 nM on Procathepsin L.

`N#Cc1nc(N2CCCCC2)c(N)c(N2CCOCC2)n1` displayed a 50% inhibitory concentration (IC50) against Cathepsin K of 22 nM.

Turning to `N#Cc1nc(NC2CCCC2)c(N)c(N2CCOCC2)n1`, on Cathepsin K, the IC50 was 13 nM.

On to `CN(C)c1nc(C#N)nc(Oc2ccccc2)c1N`, for which, in data set [1], the logt1/2 is 2.98.

Turning to `CNc1nc(C#N)nc(N(C)C)c1Br`, the logt1/2 in data set [1] is reported as 2.19.

`CN(C)c1cc(Nc2ccccc2)nc(C#N)n1`: in data set [1], the logt1/2 turned out to be 2.12.

`COc1c(Nc2ccccc2)nc(C#N)nc1N(C)C`: the logt1/2 in data set [1] is recorded as 2.31.

For the molecule `CC(C)CNc1nc(C#N)nc(N2CCNCC2)c1N`, the IC50 at Cathepsin K worked out at 6 nM; against Cathepsin B it was 6100 nM; against Cathepsin S, 890 nM; at Procathepsin L it was 1400 nM.

Turning to `COCCNc1nc(C#N)nc(NCC(C)C)c1N`, on Cathepsin K, inhibition was half-maximal at 24 nM (IC50).

The molecule `CC(C)CNc1nc(C#N)nc(NC2CCS(=O)(=O)C2)c1N` (configuration not stated) registered an IC50 against Cathepsin K of 14 nM.

For `CC(C)CNc1nc(C#N)nc(N2CC(O)C2)c1N`, the IC50 at Cathepsin K amounted to 32 nM.

In the case of `CC(C)CNc1nc(C#N)nc(NCc2nnn[nH]2)c1N`, half-maximal inhibition against Cathepsin K (IC50) was put at 62 nM.

Turning to `CNc1cc(N(C)C)nc(C#N)n1`, the logt1/2 in data set [1] is 2.67.

For the molecule `CN(C)c1nc(C#N)nc(Nc2ccccc2)c1N`, the logt1/2 in data set [1] came out at 3.

As for `CNc1c(Nc2ccccc2)nc(C#N)nc1N(C)C`, the logt1/2 in data set [1] came out at 2.91.

For `CNc1nc(C#N)nc(N(C)C)c1[N+](=O)[O-]`, the logt1/2 in data set [1] was under 2.08.

Consider `CN(C)c1nc(C#N)nc(N(C)C)c1N`, for which the logt1/2 in data set [1] is on record as 3.26.

At Cathepsin K, `CC(=O)N1CCN(c2nc(C#N)nc(NCC(C)C)c2N)CC1` showed an IC50 of 9 nM.
